The CombiSolv-Exp solvation set (Vermeire and Green 2021)

Test: solvent given as SMILES

O=C(O)c1ccccc1
Conditions | solvation free energy, 298 K [kcal/mol]
in C1CCOC1 | -9.93
in C1COCCO1 | -9.81
in C=CCCCCCCC=C | -6.26
in C=CCCCCCCCCCCCCCC | -5.84
in CC(=O)N(C)C | -10.1
in CC(C)=O | -9.63
in CC(C)CCO | -9.41
in CC(C)CO | -9.4
in CC(C)O | -9.63
in CCC(C)O | -9.41
in CCCC(C)O | -9.52
in CCCCCCCCCCO | -9.21
in CCCCCCCO | -9.27
in CCCCCCO | -9.39
in CCCCCO | -9.44
in CCCCO | -9.58
in CCCCOC(C)=O | -9.29
in CCCCOCCCC | -8.8
in CCCO | -9.6
in CCO | -9.71
in CCOC(C)=O | -9.43
in CCOCC | -9.45
in CN(C)C=O | -10.1
in CNC=O | -10
in CO | -9.81
in O | -6.96

C=CCC=CC
Conditions | solvation free energy, 298 K [kcal/mol]
in C=CCCCCCCCCCCCCCC | -3.46
in O | 1.09

C1COCCO1
Conditions | solvation free energy, 298 K [kcal/mol]
in Brc1ccccc1 | -5.08
in C1CCCCC1 | -4.15
in C1CCOC1 | -5.11
in CC1COC(=O)O1 | -4.98
in CC#N | -5.28
in CC(=O)N(C)C | -4.98
in CC(=O)O | -5.82
in CC(=O)c1ccccc1 | -5.03
in CC(C)(C)Cl | -4.78
in CC(C)(C)O | -4.79
in CC(C)=O | -5.07
in CC(C)CC(C)(C)C | -4.01
in CC(C)CCCC(C)CCCC(C)CCCCC(C)CCCC(C)CCCC(C)C | -3.8
in CC(C)CCO | -4.54
in CC(C)O | -4.55
in CC(C)OC(C)C | -4.39
in CCBr | -5.21
in CCC(C)=O | -5.01
in CCC(C)Cl | -4.7
in CCCC#N | -5.03
in CCCCC | -4.02
in CCCCCC | -4.06
in CCCCCCC | -4.01
in CCCCCCCCCC | -3.97
in CCCCCCCCCCCCCCCC | -3.81
in CCCCCl | -4.8
in CCCCN | -4.93
in CCCCN(C=O)CCCC | -4.58
in CCCCO | -4.56
in CCCCOCCCC | -4.31
in CCCO | -4.51
in CCN(CC)CC | -4.35
in CCO | -4.68
in CCOC(C)=O | -5.01
in CCOCC | -4.62
in CCOCCOCCOCC | -4.77
in CCOP(=O)(OCC)OCC | -4.63
in CCOc1ccccc1 | -4.85
in CN1CCCC1=O | -4.97
in CN1CCN(C)C1=O | -4.62
in CN(C)C=O | -5.06
in CN(C)P(=O)(N(C)C)N(C)C | -4.82
in CNC(C)=O | -4.67
in CNC=O | -4.87
in CO | -4.9
in COCCO | -4.92
in COc1ccccc1 | -5.06
in CS(C)=O | -4.84
in Cc1ccc(C)cc1 | -4.8
in Cc1cccc(C)n1 | -4.91
in Cc1cccc(O)c1 | -6.82
in Cc1ccccc1 | -4.91
in Cc1ccccn1 | -5.02
in ClC(Cl)(Cl)Cl | -4.95
in ClC(Cl)Cl | -6.11
in Clc1ccccc1 | -5.07
in FC(F)(F)C(F)(F)C(F)(F)C(F)(F)C(F)(F)C(F)(F)F | -2.75
in Fc1c(F)c(F)c(F)c(F)c1F | -4.93
in Fc1ccccc1 | -5.16
in ICI | -4.89
in Ic1ccccc1 | -4.94
in NC=O | -4.8
in Nc1ccccc1 | -5.65
in O | -5.06
in O=C1CCCCC1 | -4.98
in O=C1CCCO1 | -5.07
in O=CN1CCOCC1 | -4.73
in OCCO | -4.29
in OCCOCCOCCO | -3.88
in OCc1ccccc1 | -5.42
in S=C=S | -4.62
in [2H]O[2H] | -5.02
in c1ccc2ncccc2c1 | -4.87
in c1ccc(COCc2ccccc2)cc1 | -4.77
in c1ccccc1 | -5.16
in c1ccncc1 | -5.16

CCCCCNCc1ccc(C)cc1
Conditions | solvation free energy, 298 K [kcal/mol]
in O | -5.21
